Results reported in US20080131511A1, “Pharmaceutical Composition for Treatment of Tear and Salivary Fluid Drying” (Astellas Pharma, Inc., priority 2004, published 2008).

How the values were obtained:
Type in all cases: in vivo, mouse (male Balb/c)
sweat gland = experiment: Sweating (number of activated sweat glands on footpad) after subcutaneous bolus administration
Method: (§1) Male Balb/c mice were used in the test.
(§2) The compound A was dissolved in physiological saline to a concentration of 1, 3, 10, 30 or 100 mg/5 ml, and 5 ml/kg of the drug solution was administered under the dorsal skin. Secreted amounts of salivary and tear fluid were measured just before the administration of compound A and 10, 20, 30, 40 and 50 minutes after the administration. The sweating action was measured 10 minutes after the administration. Also, the growth acceleration action was measured 6 hours after the administration.
as §2, with “Pilocarpine was dissolved” for “The compound A was dissolved”, “concentration of 0.03, 0.1, 0.3, 1, 3 or 10 mg/5 ml, or cevimeline to a concentration of 0.3, 1, 3,” for “concentration of 1, 3,”, “administration of pilocarpine or cevimeline and 10,” for “administration of compound A and 10,”
The footpad of right hind paw of a mouse anesthetized with diethyl ether was wiped with absorbent cotton, and then 20 μl of each of 5 mg/ml iodine-ethanol solution and 50 mg/ml starch-mineral oil suspension was applied thereto. The number of black spots on footpad was counted and used as the number of activated sweat glands. In the case of the subcutaneous bolus administration test, the number of activated sweat glands 10 minutes after the administration of compound A was measured. In the case of the subcutaneous continuous administration, area under the number of activated sweat glands-versus-time curve (AUC) was calculated.
(§3) All of the test results were expressed as fold increases of the reactions of the drug-administered group versus those of the vehicle-administered group, and comparison between the drug-administered groups and the vehicle-administered group was carried out using Dunnett's t-test. P<0.05 was considered significant. Results

lacrimal gland = experiment: Tear fluid secretion after subcutaneous bolus administration; conditions: mice; for dose at which statistically significant acceleration of tear fluid secretion was attained: s.c. bolus
Method: as §1, §2
as §2, with “Pilocarpine was dissolved” for “The compound A was dissolved”, “concentration of 0.03, 0.1, 0.3, 1, 3 or 10 mg/5 ml, or cevimeline to a concentration of 0.3, 1, 3,” for “concentration of 1, 3,”, “administration of pilocarpine or cevimeline and 10,” for “administration of compound A and 10,”
(§4) The mouth of a mouse was wiped with a cotton ball whose weight had been measured in advance, and the incremental weight was used as the amount of salivary fluid. Also at the same time, a thread for tear fluid measurement (Zone Quick; Menicon) used on the Schirmer test was inserted into the lower eyelid conjunctival sac, and the length of colored part was measured and used as the amount of tear fluid. From the measurement results, area under the secreted amount-versus-time curve (AUC) was calculated.
as §3

salivary gland [1] = experiment: Salivary fluid secretion after subcutaneous bolus administration; conditions: mice; for dose at which statistically significant acceleration of salivary fluid secretion was attained / time after administration at which secretion amount of salivary and tear fluid reached maximum: s.c. bolus; for time after administration at which secretion amount of salivary and tear fluid reached maximum: every dose
Method: as §1, §2
as §2, with “Pilocarpine was dissolved” for “The compound A was dissolved”, “concentration of 0.03, 0.1, 0.3, 1, 3 or 10 mg/5 ml, or cevimeline to a concentration of 0.3, 1, 3,” for “concentration of 1, 3,”, “administration of pilocarpine or cevimeline and 10,” for “administration of compound A and 10,”
as §4, §3

salivary gland [2] = experiment: Salivary fluid secretion during subcutaneous continuous administration (osmotic pump); conditions: mice; for Salivary fluid: AUC of secreted amount
Method: as §1
The compound A was dissolved in physiological saline to a concentration of 0.625, 1.25, 2.5, 5.0, 10 or 20 mg/200 μl, and filled each pump (Alzet mini-osmotic pump 2001D, 8 μl/h, 1 day; DURECT Corporation) with about 200 μl portions It means, that is, each pump releases at a rate of 0.025, 0.05, 0.1, 0.2, 0.4 or 0.8 mg compound A/h, respectively. About 5 mm of dorsal epidermis of a mouse anesthetized with diethyl ether was incised, the osmotic pump already filled with the compound A was subcutaneously implanted, and then the skin was stitched. Secreted amounts of salivary and tear fluid and sweating were periodically measured from just before the implantation of pump until 32 hours after the administration. The ornithine decarboxylase activity was measured 10 hours after the implantation.
Pilocarpine was dissolved in physiological saline to a concentration of 0.039, 0.078, 0.16 or 0.31 mg/200 μl, or cevimeline to a concentration of 0.16, 0.31, 0.63 or 1.3 mg/200 μl, and filled the osmotic pump (Alzet mini-osmotic pump 2001 D, 8 μl/h, 1 day; DURECT Corporation) with about 200 μl portions. It means, that is, each pump releases at a rate of 0.00156, 0.00312, 0.0064 or 0.0124 mg/h (pilocarpine) or 0.0064, 0.0124, 0.0252 or 0.05 mg/h (cevimeline). About 5 mm of dorsal epidermis of a mouse anesthetized with diethyl ether was incised, the osmotic pump already filled with pilocarpine or cevimeline was subcutaneously implanted, and then the skin was stitched. Secreted amounts of salivary and tear fluid and sweating were periodically measured from just before the implantation of pump until 32 hours after the administration. The ornithine decarboxylase activity was measured 10 hours after the implantation.
as §4, §3

[3] = tested on: ornithine decarboxylase (ODC) activity of extra-orbital lacrimal gland; experiment: Ornithine decarboxylase activity of extra-orbital lacrimal gland after subcutaneous bolus administration; conditions: mice
Method: Male Balb/c mice were used in the test. […] Also, the growth acceleration action was measured 6 hours after the administration. […] Also, the growth acceleration action was measured 6 hours after the administration. […] Thus, it can be easily analogized that the ODC activity becomes a useful index of cell growth and function of the exocrine gland. Accordingly, the ability of each drug to activate glandular tissue was evaluated by measuring ODC activity of parotid salivary gland and extra-orbital lacrimal gland. The amount of ^14CO2 formed from L-^14C-ornithine was used as the index of ODC activity. A mouse anesthetized with diethyl ether was sacrificed by bleeding, and left and right parotid salivary glands and extra-orbital lacrimal glands were isolated. After removing the attached connective tissue and fat, the isolated glandular tissues homogenized in 1.5 ml of a homogenate buffer (25 mM Tris-HCl buffer (pH 7.4) containing 0.1 mM ethylenediaminetetraacetic acid, 0.4 mM pyridoxal phosphate, 5 mM dithiothreitol and 0.1% Brij 35®) using a Potter type homogenizer and then centrifuged at 4° C., 15,000 g for 30 minutes, and the supernatant was used as the enzyme fraction. […] The ^14CO2 generated by the reaction was captured by 150 μl of 1 N NaOH soaked in a glass filter. Radioactivity of the ^14CO2 captured on the glass filter was detected using a liquid scintillation counter. The enzyme activity (pmol ^14CO2/mg protein/hour) was calculated from the measured results. All of the test results were expressed as fold increases of the reactions of the drug-administered group versus those of the vehicle-administered group, and comparison between the drug-administered groups and the vehicle-administered group was carried out using Dunnett's t-test. P<0.05 was considered significant. Results

[4] = s.c. bolus 1 mg/kg, 10 minutes after administration
[5] = s.c. bolus 3 mg/kg, 10 minutes after administration
[6] = s.c. bolus 10 mg/kg, 10 minutes after administration
[7] = 10 minutes after administration
[8] = s.c. bolus 0.03 mg/kg, 10 minutes after administration
[9] = s.c. bolus 0.1 mg/kg, 10 minutes after administration
[10] = s.c. bolus 0.3 mg/kg, 10 minutes after administration
[11] = s.c. bolus 1 mg/kg, 10 minutes after administration (Table 3)

SMILES: C=C1CC2(CCN(C)CC2)O[C@H]1C [compound A, (−)-(S)-2,8-dimethyl-3-methylene-1-oxa-8-azaspiro[4.5]decane]
- dose at which a side effect was found (sweat gland; male, Balb/c, mouse, in vivo, 10 min): 30 mg/kg
- dose at which statistically significant sweating was found (sweat gland; mice, s.c. bolus): 30 mg/kg
- sweating dose relative to dose accelerating secretion of salivary and tear fluid (sweat gland; mice, s.c. bolus): 3 times
- sweating (sweat gland; mice, s.c. bolus 3 mg/kg, 10 minutes after administration): 0.69 ± 0.19 fold increase vs. the vehicle group
- sweating (sweat gland; mice, s.c. bolus 10 mg/kg, 10 minutes after administration): 1.3 ± 0.20 fold increase vs. the vehicle group
- sweating (sweat gland; mice, s.c. bolus 30 mg/kg, 10 minutes after administration): 2.0 ± 0.19 fold increase vs. the vehicle group
- sweating (sweat gland; mice, s.c. bolus 100 mg/kg, 10 minutes after administration): 2.2 ± 0.17 fold increase vs. the vehicle group
- dose at which a side effect was not found (sweat gland; mouse, bolus administration): 10 mg/kg
- Tear fluid (lacrimal gland; [4]): 1.3 ± 0.11 fold increase vs. the vehicle group
- Tear fluid (lacrimal gland; [5]): 1.4 ± 0.15 fold increase vs. the vehicle group
- Tear fluid (lacrimal gland; [6]): 2.2 ± 0.25 fold increase vs. the vehicle group
- dose at which statistically significant acceleration of tear fluid secretion was attained (lacrimal gland; [7]): 10 mg/kg
- Salivary fluid (salivary gland [1]; [4]): 1.5 ± 0.10 fold increase vs. the vehicle group
- Salivary fluid (salivary gland [1]; [5]): 1.8 ± 0.13 fold increase vs. the vehicle group
- Salivary fluid (salivary gland [1]; [6]): 3.3 ± 1.1 fold increase vs. the vehicle group
- dose at which statistically significant acceleration of salivary fluid secretion was attained (salivary gland [1]; [7]): 10 mg/kg
- time after administration at which secretion amount of salivary and tear fluid reached maximum (salivary gland [1]): 10 min
- dose at which salivary fluid secretion acceleration action reached maximum (salivary gland [2]; s.c. continuous administration): 5 mg
- time after osmotic pump implantation at which secreted amount of tear and salivary fluid became maximum (salivary gland [2]; s.c. continuous administration): 10 h
- time after osmotic pump implantation at which secreted amount of tear and salivary fluid started to increase (salivary gland [2]; s.c. continuous administration): 4 h
- time after which secretion acceleration action almost disappeared (salivary gland [2]; s.c. continuous administration): 32 h
- time until which increased secretion of tear and salivary fluid continued (salivary gland [2]; s.c. continuous administration): 26 h
- dose showing statistically significant salivary fluid secretion acceleration (salivary gland [2]; s.c. continuous administration, cumulative quantity vs vehicle group): ≥ 2.5 mg
- Salivary fluid (salivary gland [2]; s.c. osmotic pump 0.63 mg (0.025 mg/h)): 0.84 ± 0.11 fold increase vs. the vehicle group
- Salivary fluid (salivary gland [2]; s.c. osmotic pump 1.25 mg (0.05 mg/h)): 1.4 ± 0.11 fold increase vs. the vehicle group
- Salivary fluid (salivary gland [2]; s.c. osmotic pump 2.5 mg (0.1 mg/h)): 2.1 ± 0.13 fold increase vs. the vehicle group
- Salivary fluid (salivary gland [2]; s.c. osmotic pump 5 mg (0.2 mg/h)): 2.8 ± 0.21 fold increase vs. the vehicle group
- Salivary fluid (salivary gland [2]; s.c. osmotic pump 10 mg (0.4 mg/h)): 3.4 ± 0.35 fold increase vs. the vehicle group
- Glandular cell growth Lacrimal gland ([3]; s.c. bolus 10 mg/kg, ODC activity 6 hours after administration): 0.99 ± 0.24 fold increase vs. the vehicle group
- Glandular cell growth Lacrimal gland ([3]; s.c. bolus 30 mg/kg, ODC activity 6 hours after administration): 2.2 ± 0.43 fold increase vs. the vehicle group
- Glandular cell growth Lacrimal gland ([3]; s.c. bolus 100 mg/kg, ODC activity 6 hours after administration): 2.3 ± 0.07 fold increase vs. the vehicle group

SMILES: CC[C@@H]1C(=O)OC[C@@H]1Cc1cncn1C [pilocarpine]
- dose at which statistically significant sweating was found (sweat gland; mice, s.c. bolus): 1 mg/kg
- sweating (sweat gland; mice, s.c. bolus 0.3 mg/kg, 10 minutes after administration): 1.1 ± 0.16 fold increase vs. the vehicle group
- sweating (sweat gland; mice, s.c. bolus 1 mg/kg, 10 minutes after administration): 3.1 ± 0.32 fold increase vs. the vehicle group
- sweating (sweat gland; mice, s.c. bolus 3 mg/kg, 10 minutes after administration (Table 3)): 4.2 ± 0.29 fold increase vs. the vehicle group
- Tear fluid (lacrimal gland; [8]): 0.65 ± 0.19 fold increase vs. the vehicle group
- Tear fluid (lacrimal gland; [9]): 0.80 ± 0.24 fold increase vs. the vehicle group
- Tear fluid (lacrimal gland; [10]): 1.1 ± 0.14 fold increase vs. the vehicle group
- Tear fluid (lacrimal gland; [11]): 2.7 ± 0.40 fold increase vs. the vehicle group
- dose at which statistically significant acceleration of tear fluid secretion was attained (lacrimal gland; [7]): 1 mg/kg
- Salivary fluid (salivary gland [1]; [8]): 1.2 ± 0.15 fold increase vs. the vehicle group
- Salivary fluid (salivary gland [1]; [9]): 1.8 ± 0.23 fold increase vs. the vehicle group
- Salivary fluid (salivary gland [1]; [10]): 1.7 ± 0.15 fold increase vs. the vehicle group
- Salivary fluid (salivary gland [1]; [11]): 2.0 ± 0.18 fold increase vs. the vehicle group
- dose at which statistically significant acceleration of salivary fluid secretion was attained (salivary gland [1]; [7]): 0.1 mg/kg
- time after administration at which secretion amount of salivary and tear fluid reached maximum (salivary gland [1]): 10 min
- dose at which salivary fluid secretion acceleration action reached maximum (salivary gland [2]; s.c. continuous administration): 0.16 mg
- Salivary fluid (salivary gland [2]; s.c. osmotic pump 0.039 mg (0.00156 mg/h)): 1.1 ± 0.04 fold increase vs. vehicle group
- Salivary fluid (salivary gland [2]; s.c. osmotic pump 0.078 mg (0.00312 mg/h)): 1.5 ± 0.08 fold increase vs. vehicle group
- Salivary fluid (salivary gland [2]; s.c. osmotic pump 0.16 mg (0.0064 mg/h)): 2.9 ± 0.14 fold increase vs. vehicle group
- Salivary fluid (salivary gland [2]; s.c. osmotic pump 0.31 mg (0.0124 mg/h)): 2.8 ± 0.24 fold increase vs. vehicle group
- Glandular cell growth Lacrimal gland ([3]; s.c. bolus 1 mg/kg, ODC activity 6 hours after administration): 0.69 ± 0.09 fold increase vs. the vehicle group
- Glandular cell growth Lacrimal gland ([3]; s.c. bolus 3 mg/kg, ODC activity 6 hours after administration): 0.95 ± 0.23 fold increase vs. the vehicle group
- Glandular cell growth Lacrimal gland ([3]; s.c. bolus 10 mg/kg, ODC activity 6 hours after administration (Table 3)): 2.8 ± 0.61 fold increase vs. the vehicle group
